Results taken from PMC9532562 (Acta Pharmaceutica Sinica. B, 2022).
pIC50: −log10 of the molar value.

How the values were obtained:
HDAC6 = molecular target: T1, HDAC6 (Homo sapiens, UniProt Q9UBN7); experiment: HDAC enzyme inhibition assay; type: biochemical
T1 sequence (Q9UBN7 1-1215): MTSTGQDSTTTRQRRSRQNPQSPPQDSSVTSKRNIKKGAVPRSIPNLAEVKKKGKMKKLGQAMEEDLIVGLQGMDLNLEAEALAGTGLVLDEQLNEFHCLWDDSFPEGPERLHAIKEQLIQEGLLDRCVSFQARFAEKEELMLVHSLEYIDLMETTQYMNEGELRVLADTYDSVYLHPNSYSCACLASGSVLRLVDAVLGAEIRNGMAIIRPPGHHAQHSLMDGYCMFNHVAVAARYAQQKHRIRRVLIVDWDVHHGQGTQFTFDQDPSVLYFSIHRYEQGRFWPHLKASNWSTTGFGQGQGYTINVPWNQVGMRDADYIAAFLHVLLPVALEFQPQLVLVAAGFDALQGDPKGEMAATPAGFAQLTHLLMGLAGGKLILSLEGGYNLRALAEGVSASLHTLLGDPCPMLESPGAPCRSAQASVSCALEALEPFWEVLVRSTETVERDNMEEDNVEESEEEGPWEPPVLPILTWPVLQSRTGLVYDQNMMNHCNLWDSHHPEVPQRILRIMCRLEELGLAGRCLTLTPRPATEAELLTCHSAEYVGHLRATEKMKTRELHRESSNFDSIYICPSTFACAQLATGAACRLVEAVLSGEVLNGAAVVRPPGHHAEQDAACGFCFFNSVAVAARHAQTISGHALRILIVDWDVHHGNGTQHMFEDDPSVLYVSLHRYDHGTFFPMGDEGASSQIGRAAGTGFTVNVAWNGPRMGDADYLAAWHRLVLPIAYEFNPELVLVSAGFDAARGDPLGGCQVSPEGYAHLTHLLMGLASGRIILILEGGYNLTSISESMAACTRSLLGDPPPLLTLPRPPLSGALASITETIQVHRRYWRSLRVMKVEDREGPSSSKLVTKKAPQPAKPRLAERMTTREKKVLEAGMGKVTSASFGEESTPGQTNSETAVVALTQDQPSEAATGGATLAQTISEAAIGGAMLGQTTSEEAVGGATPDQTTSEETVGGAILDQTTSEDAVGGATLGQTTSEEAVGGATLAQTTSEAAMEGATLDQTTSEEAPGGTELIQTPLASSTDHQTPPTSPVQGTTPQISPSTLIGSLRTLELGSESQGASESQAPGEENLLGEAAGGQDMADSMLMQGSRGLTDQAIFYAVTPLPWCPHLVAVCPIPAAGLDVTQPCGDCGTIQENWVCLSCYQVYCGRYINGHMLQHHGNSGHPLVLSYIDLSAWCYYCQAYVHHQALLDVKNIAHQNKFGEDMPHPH

HDAC11 = molecular target: T2, HDAC11 (Homo sapiens, UniProt Q96DB2); experiment: HDAC enzyme inhibition assay; type: biochemical
T2 sequence (Q96DB2 1-347): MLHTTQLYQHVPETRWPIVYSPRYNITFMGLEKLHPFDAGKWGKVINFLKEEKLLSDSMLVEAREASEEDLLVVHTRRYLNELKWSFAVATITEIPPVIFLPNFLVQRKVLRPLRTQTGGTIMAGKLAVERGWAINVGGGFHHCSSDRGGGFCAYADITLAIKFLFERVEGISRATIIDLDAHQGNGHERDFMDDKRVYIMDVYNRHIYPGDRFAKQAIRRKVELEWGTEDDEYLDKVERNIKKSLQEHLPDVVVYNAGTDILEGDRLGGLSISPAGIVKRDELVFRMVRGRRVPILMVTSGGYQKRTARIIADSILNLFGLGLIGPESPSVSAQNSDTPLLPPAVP

HDAC1 = HDAC1 (Homo sapiens, UniProt Q13547); experiment: HDAC enzyme inhibition assay; type: biochemical
Sequence of HDAC1 (Q13547 whole entry): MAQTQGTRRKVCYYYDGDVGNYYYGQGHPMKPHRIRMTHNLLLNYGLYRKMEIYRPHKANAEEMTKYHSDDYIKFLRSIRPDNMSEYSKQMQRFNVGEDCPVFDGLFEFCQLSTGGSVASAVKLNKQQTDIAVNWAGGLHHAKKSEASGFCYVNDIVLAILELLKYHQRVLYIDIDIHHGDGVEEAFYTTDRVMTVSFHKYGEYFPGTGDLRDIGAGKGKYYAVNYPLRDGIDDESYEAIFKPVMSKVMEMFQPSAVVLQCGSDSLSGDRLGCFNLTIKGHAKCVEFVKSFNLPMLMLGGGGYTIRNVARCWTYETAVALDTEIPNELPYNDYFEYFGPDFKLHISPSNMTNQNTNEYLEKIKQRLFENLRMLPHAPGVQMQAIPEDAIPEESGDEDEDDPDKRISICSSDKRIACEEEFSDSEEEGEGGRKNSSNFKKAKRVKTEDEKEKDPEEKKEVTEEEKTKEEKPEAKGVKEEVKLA

HDAC4 = HDAC4 (Homo sapiens, UniProt P56524); experiment: HDAC enzyme inhibition assay; type: biochemical
Sequence of HDAC4 (P56524 whole entry): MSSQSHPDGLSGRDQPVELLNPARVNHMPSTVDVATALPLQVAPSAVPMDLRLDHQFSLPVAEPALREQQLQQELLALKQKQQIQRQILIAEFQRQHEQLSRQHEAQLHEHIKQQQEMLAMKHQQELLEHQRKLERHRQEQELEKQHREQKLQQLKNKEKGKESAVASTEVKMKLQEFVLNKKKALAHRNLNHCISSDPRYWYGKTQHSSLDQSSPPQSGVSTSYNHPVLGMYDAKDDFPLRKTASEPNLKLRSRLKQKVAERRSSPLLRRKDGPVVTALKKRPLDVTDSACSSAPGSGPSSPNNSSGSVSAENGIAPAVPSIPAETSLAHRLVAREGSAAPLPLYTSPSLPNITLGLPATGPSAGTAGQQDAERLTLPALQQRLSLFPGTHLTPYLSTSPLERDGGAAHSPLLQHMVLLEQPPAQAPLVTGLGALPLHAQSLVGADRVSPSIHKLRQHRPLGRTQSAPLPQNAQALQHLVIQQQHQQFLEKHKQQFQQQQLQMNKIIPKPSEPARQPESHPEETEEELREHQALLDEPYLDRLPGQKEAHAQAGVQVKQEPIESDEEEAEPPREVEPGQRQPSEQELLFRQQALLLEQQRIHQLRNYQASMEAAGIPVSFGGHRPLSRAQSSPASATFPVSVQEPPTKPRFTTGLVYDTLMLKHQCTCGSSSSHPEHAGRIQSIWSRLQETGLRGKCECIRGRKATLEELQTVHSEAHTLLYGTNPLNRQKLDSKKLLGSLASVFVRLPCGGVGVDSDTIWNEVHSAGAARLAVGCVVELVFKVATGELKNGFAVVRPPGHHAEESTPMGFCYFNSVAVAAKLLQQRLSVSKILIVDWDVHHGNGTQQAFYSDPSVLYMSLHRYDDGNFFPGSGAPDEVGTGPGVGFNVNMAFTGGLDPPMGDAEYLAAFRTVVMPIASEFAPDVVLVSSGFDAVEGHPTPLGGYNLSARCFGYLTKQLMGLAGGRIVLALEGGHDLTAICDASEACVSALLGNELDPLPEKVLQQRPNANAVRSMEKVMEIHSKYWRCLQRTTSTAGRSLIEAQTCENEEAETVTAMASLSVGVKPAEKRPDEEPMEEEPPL

HDAC9 = HDAC9 (Homo sapiens, UniProt Q9UKV0); experiment: HDAC enzyme inhibition assay; type: biochemical
Sequence of HDAC9 (Q9UKV0 whole entry): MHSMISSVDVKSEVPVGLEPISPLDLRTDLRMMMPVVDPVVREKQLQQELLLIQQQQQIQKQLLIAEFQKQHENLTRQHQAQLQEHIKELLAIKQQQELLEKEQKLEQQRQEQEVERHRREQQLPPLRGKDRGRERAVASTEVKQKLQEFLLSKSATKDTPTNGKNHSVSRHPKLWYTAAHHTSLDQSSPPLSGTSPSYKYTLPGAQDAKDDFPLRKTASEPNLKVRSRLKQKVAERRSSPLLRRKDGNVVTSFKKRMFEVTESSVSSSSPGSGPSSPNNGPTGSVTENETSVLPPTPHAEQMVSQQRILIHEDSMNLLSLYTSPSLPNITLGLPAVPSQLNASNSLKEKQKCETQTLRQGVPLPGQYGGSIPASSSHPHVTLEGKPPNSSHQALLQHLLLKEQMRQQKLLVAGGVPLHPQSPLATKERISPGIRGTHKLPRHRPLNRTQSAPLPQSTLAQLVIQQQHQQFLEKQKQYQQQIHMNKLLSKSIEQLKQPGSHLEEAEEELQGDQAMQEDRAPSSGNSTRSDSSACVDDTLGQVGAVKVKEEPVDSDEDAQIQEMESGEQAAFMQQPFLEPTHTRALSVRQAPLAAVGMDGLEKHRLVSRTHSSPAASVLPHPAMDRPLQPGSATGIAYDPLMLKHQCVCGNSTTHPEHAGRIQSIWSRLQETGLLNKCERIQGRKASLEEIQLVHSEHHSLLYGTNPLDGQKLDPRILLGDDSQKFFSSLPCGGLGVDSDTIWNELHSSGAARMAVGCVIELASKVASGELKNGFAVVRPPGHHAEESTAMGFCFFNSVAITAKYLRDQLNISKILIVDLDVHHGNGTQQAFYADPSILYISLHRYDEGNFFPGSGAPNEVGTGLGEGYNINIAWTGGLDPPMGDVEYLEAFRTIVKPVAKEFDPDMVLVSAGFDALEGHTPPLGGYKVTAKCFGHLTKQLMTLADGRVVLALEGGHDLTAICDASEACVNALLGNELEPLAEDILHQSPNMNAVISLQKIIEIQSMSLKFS

HDAC5 = HDAC5 (Homo sapiens, UniProt Q9UQL6); experiment: HDAC enzyme inhibition assay; type: biochemical
Sequence of HDAC5 (Q9UQL6 whole entry): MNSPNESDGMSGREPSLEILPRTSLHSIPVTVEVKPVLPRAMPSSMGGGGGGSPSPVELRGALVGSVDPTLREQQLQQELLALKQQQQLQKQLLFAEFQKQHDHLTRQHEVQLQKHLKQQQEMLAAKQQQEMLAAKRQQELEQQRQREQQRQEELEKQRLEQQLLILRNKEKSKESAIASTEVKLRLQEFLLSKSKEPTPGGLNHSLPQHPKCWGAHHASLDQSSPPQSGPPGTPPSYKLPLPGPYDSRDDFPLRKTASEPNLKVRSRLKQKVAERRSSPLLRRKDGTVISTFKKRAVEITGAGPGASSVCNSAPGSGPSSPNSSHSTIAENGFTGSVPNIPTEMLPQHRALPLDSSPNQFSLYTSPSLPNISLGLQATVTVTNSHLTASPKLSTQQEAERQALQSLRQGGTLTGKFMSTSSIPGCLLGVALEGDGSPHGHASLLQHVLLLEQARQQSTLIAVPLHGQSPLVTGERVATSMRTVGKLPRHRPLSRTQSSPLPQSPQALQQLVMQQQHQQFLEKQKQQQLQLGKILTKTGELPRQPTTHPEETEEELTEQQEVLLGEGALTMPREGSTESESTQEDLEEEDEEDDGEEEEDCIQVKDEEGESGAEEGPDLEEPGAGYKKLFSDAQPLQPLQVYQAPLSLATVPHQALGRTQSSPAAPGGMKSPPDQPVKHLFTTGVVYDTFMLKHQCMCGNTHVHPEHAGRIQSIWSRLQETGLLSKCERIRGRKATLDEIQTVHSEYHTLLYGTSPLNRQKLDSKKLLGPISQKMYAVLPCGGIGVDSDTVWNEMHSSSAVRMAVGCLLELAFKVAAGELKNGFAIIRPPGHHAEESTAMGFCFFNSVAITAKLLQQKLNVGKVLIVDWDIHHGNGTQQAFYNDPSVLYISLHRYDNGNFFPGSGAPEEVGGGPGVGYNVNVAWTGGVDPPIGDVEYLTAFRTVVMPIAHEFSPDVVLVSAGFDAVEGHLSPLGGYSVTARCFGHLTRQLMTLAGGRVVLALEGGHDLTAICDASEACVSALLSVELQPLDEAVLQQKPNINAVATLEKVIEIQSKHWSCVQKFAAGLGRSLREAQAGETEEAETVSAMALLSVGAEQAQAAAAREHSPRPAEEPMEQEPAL

HDAC10 = molecular target: T3, HDAC10 (Homo sapiens, UniProt Q969S8); experiment: HDAC enzyme inhibition assay; type: biochemical
T3 sequence (Q969S8 1-669): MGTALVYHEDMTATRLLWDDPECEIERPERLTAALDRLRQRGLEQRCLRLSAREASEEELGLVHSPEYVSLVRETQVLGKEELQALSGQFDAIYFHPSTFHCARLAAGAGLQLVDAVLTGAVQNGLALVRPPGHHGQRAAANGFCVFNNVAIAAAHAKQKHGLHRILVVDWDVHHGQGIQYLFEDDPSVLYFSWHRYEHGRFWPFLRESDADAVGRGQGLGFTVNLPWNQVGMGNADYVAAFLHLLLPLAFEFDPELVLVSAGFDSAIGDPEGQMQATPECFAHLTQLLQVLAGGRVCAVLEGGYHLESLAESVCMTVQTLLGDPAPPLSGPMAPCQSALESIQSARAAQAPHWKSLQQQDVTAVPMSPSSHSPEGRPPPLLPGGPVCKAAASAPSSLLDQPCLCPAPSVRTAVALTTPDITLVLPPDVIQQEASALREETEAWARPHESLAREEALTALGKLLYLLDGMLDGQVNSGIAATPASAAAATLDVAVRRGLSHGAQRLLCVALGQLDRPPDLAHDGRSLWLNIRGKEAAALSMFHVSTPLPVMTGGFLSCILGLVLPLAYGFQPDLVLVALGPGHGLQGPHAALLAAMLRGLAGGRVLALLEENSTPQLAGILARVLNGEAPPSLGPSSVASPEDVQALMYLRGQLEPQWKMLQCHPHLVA

HDAC8 = molecular target: T4, HDAC8 (Homo sapiens, UniProt Q9BY41); experiment: HDAC enzyme inhibition assay; type: biochemical
T4 sequence (Q9BY41 1-377): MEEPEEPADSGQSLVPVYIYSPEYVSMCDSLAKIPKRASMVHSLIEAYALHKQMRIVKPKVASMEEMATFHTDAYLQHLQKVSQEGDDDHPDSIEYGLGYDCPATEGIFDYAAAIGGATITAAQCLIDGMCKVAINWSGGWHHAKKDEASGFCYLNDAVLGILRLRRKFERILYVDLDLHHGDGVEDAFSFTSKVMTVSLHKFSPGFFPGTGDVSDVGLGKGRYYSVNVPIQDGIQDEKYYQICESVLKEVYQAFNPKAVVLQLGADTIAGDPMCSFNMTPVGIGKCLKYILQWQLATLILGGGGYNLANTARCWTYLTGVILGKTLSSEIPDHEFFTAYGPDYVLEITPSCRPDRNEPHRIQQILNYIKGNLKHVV

HDAC2 = HDAC2 (Homo sapiens, UniProt Q92769); experiment: HDAC enzyme inhibition assay; type: biochemical
Sequence of HDAC2 (Q92769 whole entry): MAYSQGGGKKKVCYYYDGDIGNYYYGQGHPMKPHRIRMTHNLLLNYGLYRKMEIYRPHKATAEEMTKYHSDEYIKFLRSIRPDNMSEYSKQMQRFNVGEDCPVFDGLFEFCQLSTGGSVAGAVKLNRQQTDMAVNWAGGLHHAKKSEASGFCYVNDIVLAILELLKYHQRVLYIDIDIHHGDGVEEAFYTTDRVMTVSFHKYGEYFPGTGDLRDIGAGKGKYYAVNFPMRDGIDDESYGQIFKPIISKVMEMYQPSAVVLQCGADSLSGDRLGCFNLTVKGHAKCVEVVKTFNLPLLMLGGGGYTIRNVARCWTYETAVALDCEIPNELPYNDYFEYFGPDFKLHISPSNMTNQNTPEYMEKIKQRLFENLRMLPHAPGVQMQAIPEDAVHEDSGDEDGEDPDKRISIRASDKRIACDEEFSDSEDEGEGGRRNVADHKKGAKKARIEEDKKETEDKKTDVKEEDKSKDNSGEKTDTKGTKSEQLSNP

HDAC7 = molecular target: T5, HDAC7 (Homo sapiens, UniProt Q8WUI4); experiment: HDAC enzyme inhibition assay; type: biochemical
T5 sequence (Q8WUI4 1-952): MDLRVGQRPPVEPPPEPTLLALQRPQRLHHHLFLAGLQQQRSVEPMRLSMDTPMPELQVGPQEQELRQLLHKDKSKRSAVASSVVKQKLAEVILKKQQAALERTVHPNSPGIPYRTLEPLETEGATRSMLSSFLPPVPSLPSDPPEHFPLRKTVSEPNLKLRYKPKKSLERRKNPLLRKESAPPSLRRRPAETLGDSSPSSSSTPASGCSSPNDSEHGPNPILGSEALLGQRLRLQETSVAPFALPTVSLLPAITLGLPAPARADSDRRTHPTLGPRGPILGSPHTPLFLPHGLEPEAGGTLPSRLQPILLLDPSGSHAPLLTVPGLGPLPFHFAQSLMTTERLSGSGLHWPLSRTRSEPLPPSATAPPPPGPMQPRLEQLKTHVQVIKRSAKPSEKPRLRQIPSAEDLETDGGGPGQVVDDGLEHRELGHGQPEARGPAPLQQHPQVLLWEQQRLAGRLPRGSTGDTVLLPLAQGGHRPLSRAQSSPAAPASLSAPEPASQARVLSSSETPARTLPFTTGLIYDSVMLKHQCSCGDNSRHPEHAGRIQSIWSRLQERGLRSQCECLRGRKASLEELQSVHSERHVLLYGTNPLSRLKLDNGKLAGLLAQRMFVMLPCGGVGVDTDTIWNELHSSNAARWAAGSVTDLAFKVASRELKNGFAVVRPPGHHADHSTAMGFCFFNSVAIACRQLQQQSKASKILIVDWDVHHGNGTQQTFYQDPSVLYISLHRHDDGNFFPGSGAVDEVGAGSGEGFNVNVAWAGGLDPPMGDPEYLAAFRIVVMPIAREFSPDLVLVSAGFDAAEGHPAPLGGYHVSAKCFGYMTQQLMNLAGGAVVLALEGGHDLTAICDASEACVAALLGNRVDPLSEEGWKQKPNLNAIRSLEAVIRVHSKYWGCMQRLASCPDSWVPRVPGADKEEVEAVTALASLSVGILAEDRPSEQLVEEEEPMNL

HDAC3 = HDAC3 (Homo sapiens, UniProt O15379); experiment: HDAC enzyme inhibition assay; type: biochemical
Sequence of HDAC3 (O15379 whole entry): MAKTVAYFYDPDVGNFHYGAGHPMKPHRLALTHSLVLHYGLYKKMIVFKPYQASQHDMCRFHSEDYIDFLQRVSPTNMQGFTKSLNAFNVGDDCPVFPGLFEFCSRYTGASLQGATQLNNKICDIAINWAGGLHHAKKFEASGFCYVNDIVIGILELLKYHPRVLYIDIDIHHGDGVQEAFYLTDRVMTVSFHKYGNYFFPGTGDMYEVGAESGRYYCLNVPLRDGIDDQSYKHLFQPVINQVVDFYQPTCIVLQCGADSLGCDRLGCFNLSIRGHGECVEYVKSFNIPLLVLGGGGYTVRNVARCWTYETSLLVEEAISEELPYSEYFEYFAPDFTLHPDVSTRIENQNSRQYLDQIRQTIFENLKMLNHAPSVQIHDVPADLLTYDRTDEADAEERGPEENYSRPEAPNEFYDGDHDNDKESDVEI
Sequence of HDAC3 (Q9Y618 395-489 partner limits assumed): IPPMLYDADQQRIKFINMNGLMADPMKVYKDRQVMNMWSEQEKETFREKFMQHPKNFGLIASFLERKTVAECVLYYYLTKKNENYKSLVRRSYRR

Hepatocyte stability = type: in vitro ADME; settings: human, hepatocytes
Plasma protein binding = type: in vitro ADME; settings: human
CYP2C9 = CYP2C9 (Homo sapiens, UniProt P11712); experiment: CYP inhibition assay, pooled human liver microsomes; type: in vitro ADME; settings: probe diclofenac
[1] = In vivo brain/plasma PK studies; parameters: species or system C57BL/6 mice; settings: C57BL/6, mouse, ip, 1 mg/kg
[2] = LogD determination, shake flask method; type: physicochemical; settings: n-octanol/PBS, pH 7.4
CYP3A4 = CYP3A4 (Homo sapiens, UniProt P08684); experiment: CYP inhibition assay, pooled human liver microsomes; type: in vitro ADME; settings: probe testosterone
CYP2C19 = CYP2C19 (Homo sapiens, UniProt P33261); experiment: as above; type: in vitro ADME; settings: probe S-mephenytoin
CYP1A2 = molecular target: T6, CYP1A2 (Homo sapiens, UniProt P05177); experiment: as above; type: in vitro ADME; settings: probe phenacetin
T6 sequence (P05177 1-516): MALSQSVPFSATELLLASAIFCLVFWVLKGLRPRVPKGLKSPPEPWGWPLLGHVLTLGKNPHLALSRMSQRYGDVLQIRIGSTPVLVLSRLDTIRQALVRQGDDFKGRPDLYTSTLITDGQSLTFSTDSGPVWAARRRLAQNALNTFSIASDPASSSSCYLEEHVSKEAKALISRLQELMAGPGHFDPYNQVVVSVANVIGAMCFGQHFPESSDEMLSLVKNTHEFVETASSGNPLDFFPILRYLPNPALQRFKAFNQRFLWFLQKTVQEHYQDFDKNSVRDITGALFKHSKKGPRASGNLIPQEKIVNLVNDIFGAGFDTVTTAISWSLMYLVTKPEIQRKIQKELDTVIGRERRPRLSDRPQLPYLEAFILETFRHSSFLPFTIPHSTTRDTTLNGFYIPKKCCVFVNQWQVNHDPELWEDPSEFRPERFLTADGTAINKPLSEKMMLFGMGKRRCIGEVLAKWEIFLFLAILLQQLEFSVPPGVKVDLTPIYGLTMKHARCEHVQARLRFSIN

CYP2D6 = CYP2D6 (Homo sapiens, UniProt P10635); experiment: as above; type: in vitro ADME; settings: probe dextromethorphan

Row | pIC50 (HDAC6) | pIC50 (HDAC11) | pIC50 (HDAC1) | pIC50 (HDAC4) | pIC50 (HDAC9) | pIC50 (HDAC5) | pIC50 (HDAC10) | pIC50 (HDAC8) | pIC50 (HDAC2) | pIC50 (HDAC7) | pIC50 (HDAC3) | Compound | further results
1 | 5.19 | 5.02 | < 5.00 | < 5.00 | < 5.00 | < 5.00 | < 5.00 | < 5.00 | < 5.00 | < 5.00 | < 5.00 | COc1cc(C(=O)NO)ccc1CN1CCCCc2ccccc21 [15a, N-Hydroxy-3-methoxy-4-((2,3,4,5-tetrahydro-1H-benzo[b]azepin-1-yl)methyl)benzamide] | –
2 | 5.38 | 5.45 | < 5.00 | < 5.00 | < 5.00 | < 5.00 | < 5.00 | 5.69 | < 5.00 | – | < 5.00 | COc1cc(CN2CCCCc3ccccc32)ccc1C(=O)NO [15b, N-Hydroxy2-methoxy-4-((2,3,4,5-tetrahydro-1H-benzo[b]azepin-1-yl)methyl)benzamide] | –
3 | 8.28 | 5.36 | 5.11 | 5.67 | 5.50 | 5.61 | 5.05 | 5.77 | < 5.00 | 6.22 | 5.53 | O=C(NO)c1ccc(CN2CCCCc3ccccc32)c(F)c1 [15c, 3-Fluoro-N-hydroxy-4-((2,3,4,5-tetrahydro-1H-benzo[b]azepin-1-yl)methyl)benzamide] | half-life at 5 μM (Hepatocyte stability): 32.4 min; selectivity for HDAC6 over other HDAC isoforms (HDAC6; HDAC6 vs other HDAC isoforms): > 119 fold; fraction unbound (Plasma protein binding): 0.006; inhibition at 10 min, 10 μmol/L (CYP2C9): 34.8%; Kp at 4 h ([1]; brain and plasma, Brain/plasma ratio, C57BL/6 mice, 4 h): 2.3; concentration at 0.5 h ([1]; brain): 48.5 ng/mL; concentration at 1 h ([1]; brain): 11.5 ng/mL; concentration at 4 h ([1]; brain): 0.82 ng/mL; concentration at 0.5 h ([1]; plasma): 1.32 ng/mL; concentration at 1 h ([1]; plasma): 0.72 ng/mL; concentration at 4 h ([1]; plasma): 0.35 ng/mL; logD at 1 h [2]: 3.4; inhibition at 10 min, 10 μmol/L (CYP3A4): 89%; inhibition at 25 min, 10 μmol/L (CYP2C19): 54%; inhibition at 10 min, 10 μmol/L (CYP1A2): 36.8%; inhibition at 10 min, 10 μmol/L (CYP2D6): 36.3%
4 | 7.60 | 5.27 | < 5.00 | 5.45 | < 5.00 | < 5.00 | < 5.00 | 5.04 | < 5.00 | 5.52 | 5.61 | O=C(NO)c1ccc(CN2CCCCc3ccccc32)cc1F [15d, 2-Fluoro-N-hydroxy-4-((2,3,4,5-tetrahydro-1H-benzo[b]azepin-1-yl)methyl)benzamide] | –
